# Results published in patent publication US8269012B2, “Aminopyrazole triazolothiadiazole inhibitors of c-met protein kinase” (Vertex Pharmaceuticals Incorporated, priority 2009, dated 2012).
# Columns and labels:
# [1] = system: SNU-5 gastric cancer cells; assay: Inhibition of tumor growth of subcutaneously implanted SNU-5 cells in SCID mice; assay type: in vivo; conditions: all three dose levels tested (3, 10, 30 mg/kg/day)
# Protocol: Compound 3 was investigated for its ability to inhibit tumor growth of subcutaneously implanted SNU-5 gastric cancer cells in severe combined immunodeficient (SCID) mice. SNU-5 cells (CRL-5973, American Type Culture Collection, Manassas, Va.) were cultured in ISCOVE's Modified Dulbecco's Medium (IMDM) (Invitrogen, Carlsbad, Calif.) supplemented with 10% fetal bovine serum (FBS) (Hyclone, Logan, Utah), 100 units/mL of penicillin, […] of streptomycin (Invitrogen, Carlsbad, Calif.), and 2 mM L-glutamine. Cells were cultured for fewer than 4 passages prior to implantation. Female SCID mice (Fox Chase SCID, CB-17, mice weighing 17 to 19 g obtained from Charles River Laboratories, Wilmington, MA) were injected subcutaneously (s.c.) with 5×10^6 SNU-5 cells into the right dorsal axillary region on Day 0. […]
# Compound 3, formulated in a vehicle containing 30% (w/v) Propylene Glycol and 10% Solutol (Sigma-Aldrich, St Louis, Mo.) as a suspended homogenous form, was administered orally (p.o.) once daily (QD) at total daily doses of 3, 10, and 30 mg/kg/day for 14 days. Tumor volumes (calculated using the ellipsoid formula, […], where length and width represented the largest and smallest dimensions of the tumor, respectively) were recorded for two weeks after the initiation of treatment. […]
# [2] = system: A549HGF cells; assay: Inhibition of tumor metastasis to the lungs, subcutaneous A549HGF tumors in SCID mice; assay type: in vivo
# Protocol: Compound 3 was investigated for its ability to inhibit the metastasis of subcutaneously implanted tumors to the lungs of severe combined immunodeficient (SCID) mice. Accordingly, A549 cells (A549HGF-1m1115, transfected with hepatocyte growth factor, luciferase, and green fluorescent protein) were cultured in RPMI1640 medium (Invitrogen, Carlsbad, Calif.) supplemented with 10% fetal bovine serum (FBS) (Hyclone, Logan, Utah), 100 units/mL of penicillin, […] of streptomycin (Invitrogen, Carlsbad, Calif.), and 2 mM L-glutamine for fewer than 4 passages prior to implantation. […]
# Female SCID mice were injected subcutaneously (s.c.) with 5×10^6 A549HGF cells into the right dorsal axillary region on Day 0. […] Ectopic tumor measurements were recorded twice a week for 3 weeks after the initiation of treatment.
# In order to evaluate the anti-metastatic potential of Compound 3, at the termination of the study all animal lung tissues were harvested and lysed by homogenization for ex vivo quantification via luciferase luminescence.
smiles,measurement,setting,value
"Cn1cc(Nc2nn3c(C(F)(F)c4ccc5ncccc5c4)nnc3s2)cn1 [Compound 3, 3-(Difluoro(quinolin-6-yl)methyl)-N-(1-methyl-1H-pyrazol-4-yl)-[1,2,4]triazolo[3,4-b][1,3,4]thiadiazol-6-amine]",anti-tumor activity,[1],significant and dose-dependent anti-tumor activity
same,formation of lung metastases,"[2]; 60 mg/kg/day compared to vehicle controls, p<0.02",significantly inhibits the formation of lung metastases
same,change in primary A549 tumor cell growth at the site of implantation vs vehicle,"[2]; 30 or 60 mg/kg/day p.o. QD, 22 days",no significant change
